In patent EP1538159A1, “Substituted N-benzyl-lactam derivatives as melanocortin-4 receptor agonists” (Santhera Pharmaceuticals (Schweiz) GmbH, priority 2003, dated 2005):
pEC50, pIC50: −log10 of the molar value.

What was measured:
hMC-3R = target: T1, hMC-3R (Homo sapiens, UniProt P41968); test: Membrane binding assay (fluorescence polarization, fluorescence labeled NDP-alpha-MSH competition); settings: HEK293 cell membrane preparations
T1 construct: expressed in transfected cells; host or cells: HEK293
Experimental: (§1) A membrane binding assay is used to identify competitive inhibitors of fluorescence labeled NDP-alpha-MSH binding to HEK293 cell membrane preparations expressing human melanocortin receptors.
(§2) The test compound or unlabeled NDP-alpha-MSH is dispensed at varying concentrations to a 384 well microtiter plate. Fluorescence labeled NDP-alpha-MSH is dispensed at a single concentration, followed by addition of membrane preparations. The plate is incubated for 5 h at room temperature.
(§3) The degree of fluorescence polarization is determined with a fluorescence polarization microplate reader.

hMC-4R [1] = target: T2, hMC-4R (Homo sapiens, UniProt P32245); test: as above; settings: HEK293 cell membrane preparations
T2 construct: expressed in transfected cells; host or cells: HEK293
Experimental: as §1, §2, §3

hMC-5R = target: T3, hMC-5R (Homo sapiens, UniProt P33032); test: as above; settings: HEK293 cell membrane preparations
T3 construct: expressed in transfected cells; host or cells: HEK293
Experimental: as §1, §2, §3

hMC-4R [2] = target: T2, hMC-4R; test: Functional cellular cAMP assay (fluorescence polarization); type: cell-based; settings: for pEC50: HEK293 cells, cAMP production; for % activation: cAMP production compared to stimulation with NDP-alpha-MSH; for fold improvement of functional activity: compared with WO030009850A1, Examples 1 and 34; for fold better functional activity: hMC4 EC50 compared with WO030009850A1, Example 166
Experimental: A functional cellular assay, based on competition between unlabeled cAMP and a fixed quantity of fluorescence labeled cAMP for a limited number of binding sites on a cAMP specific antibody, is used to discriminate melanocortin receptor agonists from antagonists by fluorescence polarization.
HEK293 cells expressing one of the human melanocortin receptors are transferred to 384 well microtiter plates, an appropriate amount of cAMP antibody is added, followed by the addition of different concentrations of the test compound to effect cAMP production. Cells are lysed and a fluorescence labeled cAMP conjugate is dispensed. The plate is read on a fluorescence polarization microplate reader and the amount of cAMP produced as a response to a test compound is compared to the production of cAMP resulting from stimulation with NDP-alpha-MSH.
To define antagonistic activity of a test compound, the compound is dispensed at different concentrations to cells stimulated by an appropriate amount of NDP-α-MSH. Inhibition of cAMP production is determined by comparing the inhibition of cAMP production of the test compound to the inhibition of cAMP production by a known inhibitor tested at the same concentrations.

T3 sequence (P33032 whole entry): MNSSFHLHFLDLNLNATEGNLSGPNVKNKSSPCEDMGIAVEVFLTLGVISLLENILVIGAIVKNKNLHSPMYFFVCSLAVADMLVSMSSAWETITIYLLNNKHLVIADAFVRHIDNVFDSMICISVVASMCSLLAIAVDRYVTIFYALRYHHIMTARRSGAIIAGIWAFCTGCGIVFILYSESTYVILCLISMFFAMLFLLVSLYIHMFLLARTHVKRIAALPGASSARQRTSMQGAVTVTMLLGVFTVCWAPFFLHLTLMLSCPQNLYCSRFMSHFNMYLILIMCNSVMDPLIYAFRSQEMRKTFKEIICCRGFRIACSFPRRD
T1 sequence (P41968 whole entry): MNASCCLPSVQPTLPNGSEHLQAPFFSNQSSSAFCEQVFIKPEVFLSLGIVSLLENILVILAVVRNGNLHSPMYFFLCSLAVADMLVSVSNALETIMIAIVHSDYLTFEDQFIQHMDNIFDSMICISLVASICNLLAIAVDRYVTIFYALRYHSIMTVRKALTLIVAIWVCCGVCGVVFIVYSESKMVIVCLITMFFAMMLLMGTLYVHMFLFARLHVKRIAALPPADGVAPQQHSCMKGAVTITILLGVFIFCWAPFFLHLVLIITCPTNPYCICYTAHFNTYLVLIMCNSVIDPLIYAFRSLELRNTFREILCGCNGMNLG
T2 sequence (P32245 whole entry): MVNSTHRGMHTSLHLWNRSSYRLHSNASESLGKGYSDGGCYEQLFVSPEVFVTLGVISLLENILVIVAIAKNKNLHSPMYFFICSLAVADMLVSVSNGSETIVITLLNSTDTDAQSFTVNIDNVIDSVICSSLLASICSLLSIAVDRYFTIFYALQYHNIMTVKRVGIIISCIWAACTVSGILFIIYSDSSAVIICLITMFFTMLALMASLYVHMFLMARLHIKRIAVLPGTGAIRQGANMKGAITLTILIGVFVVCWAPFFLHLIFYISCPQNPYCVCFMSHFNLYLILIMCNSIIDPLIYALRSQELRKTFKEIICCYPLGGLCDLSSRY

Row | SMILES | Binding Activity hMC-3R, % @10 uM (hMC-3R) [%@10 uM] | pIC50 (hMC-4R [1]) | pIC50 (hMC-5R) | pEC50 (hMC-4R [2]) | % activation (hMC-4R [2]) [%] | fold improvement of functional activity (hMC-4R [2]) | fold better functional activity (hMC-4R [2]) [fold] | pIC50 (hMC-3R) | Functional Activity hMC-4R, % @10 µM (hMC-4R [2]; @10 µM) [%@10 µM]
1 | O=C(N[C@H](Cc1ccc(Cl)cc1)C(=O)N1CCN(c2ccccc2CN2CCCC2=O)CC1)[C@H]1Cc2ccccc2CN1 [Example 3] | 41 | 7.54 | 5.89 | 6.59 | 109 | more than 14 fold | 11 |  | 
2 | O=C(N[C@H](Cc1ccc(Cl)cc1)C(=O)N1CCC(c2ccccc2CN2CCCC2=O)CC1)C1CNC1 [WO030009847 Example 153, (R)-azetidine-3-carboxylic acid (1-(4-chloro-benzyl)-2-oxo-2-{4-[2-(2-oxo-pyrrolidin-1-ylmethyl)-phenyl]-piperidin-1-yl}-ethyl)-amide, reference compound] |  | 7.40 | 5.48 | 5.99 | 107 |  |  | 5.28 | 
3 | NC1c2ccccc2CCC1C(=O)N[C@H](Cc1ccc(Cl)cc1)C(=O)N1CCC(c2ccccc2CN2CCCC2=O)CC1 (single isomer, unassigned) [Example 2A] |  | 7.77 |  | 7.00 | 86 |  |  |  | 
4 | CS(=O)(=O)Nc1ccccc1N1CCN(C(=O)[C@@H](Cc2ccc(Cl)cc2)NC(=O)C2CNC2)CC1 [WO030009850 Example 34, (R)-azetidine-3-carboxylic acid {1-(4-chloro-benzyl)-2-[4-(2-methanesulfonylamino-phenyl)-piperazin-1-yl]-2-oxo-ethyl}-amide, reference compound] |  | 5.54 |  |  |  |  |  |  | 11
5 | NC1c2ccccc2CCC1C(=O)N[C@H](Cc1ccc(Cl)cc1)C(=O)N1CCC(c2ccccc2CN2CCCC2=O)CC1 (single isomer, unassigned) [Example 2B] |  | 8.15 |  | 7.54 | 90 |  |  |  | 
6 | O=C(N[C@H](Cc1ccc(Cl)cc1)C(=O)N1CCC(c2ccccc2CN2CCCC2=O)CC1)[C@H]1Cc2ccccc2CN1 [Example 1] |  | 7.77 | 6.09 | 7.22 | 112 |  |  | 5.14 | 
7 | NC1c2ccccc2CCC1C(=O)N[C@H](Cc1ccc(Cl)cc1)C(=O)N1CCN(c2ccccc2CN2CCCC2=O)CC1 (single isomer, unassigned) [Example 4B] | 47 | 7.68 | 5.74 | 6.74 | 91 | > 21 fold | 16 |  | 
8 | O=C(N[C@H](Cc1ccc(Cl)cc1)C(=O)N1CCN(c2ccccc2CN2CCCC2=O)CC1)C1CNC1 [WO030009850 Example 166, (R)-azetidine-3-carboxylic acid (1-(4-chloro-benzyl)-2-oxo-2-{4-[2-(2-oxo-pyrrolidin-1-ylmethyl)-phenyl]-piperazin-1-yl}-ethyl)-amide, reference compound] |  | 6.96 | 5.16 | 5.55 | 90 |  |  | 4.72 | 
9 | CS(=O)(=O)Nc1ccccc1N1CCN(C(=O)[C@@H](Cc2ccc(Cl)cc2)NC(=O)[C@H]2Cc3ccccc3CN2)CC1 [WO030009850 Example 1, (R,R)-1,2,3,4-tetrahydro-isoquinoline-3-carboxylic acid {1-(4-chloro-benzyl)-2-[4-(2-methanesulfonylamino-phenyl)-piperazin-1-yl]-2-oxo-ethyl}-amide, reference compound] |  | 6.30 |  | 5.43 | 96 |  |  |  | 
